According to the supplement of paper PMC10307832:

Key:
Experiment in all cases: relative viability (nuclei count vs DMSO), 5 days (fraction); higher = more cells survive
[1] = tested on: EMC-BAC-2
Procedure, shortened: (§1)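 Lung cancer cell lines were seeded in 1536-well plates and dosed by pin tool the next day, with either a single drug or a fixed anchor-drug dose combined with five library-drug doses (not always all listed) spaced in √10 steps. Five days later, one step fixed the cells and stained their nuclei (final 0.05% Triton X-100, 1% formaldehyde, 1 ug/ml Hoechst), and nuclei were counted on 4× images. Relative viability is the nuclei count in treated wells divided by the count in vehicle wells, and each value is the median of duplicate plates.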

[2] = tested on: EPLC-272H
Procedure, shortened: as §1

[3] = tested on: H3255
Procedure, shortened: as §1

[4] = tested on: HOP-62
Procedure, shortened: as §1

[5] = tested on: LCLC-97TM1
Procedure, shortened: as §1

[6] = tested on: LXF-289
Procedure, shortened: as §1

[7] = tested on: NCI-H1563
Procedure, shortened: as §1

[8] = tested on: NCI-H1734
Procedure, shortened: as §1

[9] = tested on: NCI-H1915
Procedure, shortened: as §1

[10] = tested on: NCI-H1993
Procedure, shortened: as §1

[11] = tested on: NCI-H2009
Procedure, shortened: as §1

[12] = tested on: NCI-H2023
Procedure, shortened: as §1

[13] = tested on: NCI-H2085
Procedure, shortened: as §1

[14] = tested on: NCI-H2126
Procedure, shortened: as §1

[15] = tested on: NCI-H2347
Procedure, shortened: as §1

[16] = tested on: NCI-H322M
Procedure, shortened: as §1

[17] = tested on: NCI-H647
Procedure, shortened: as §1

[18] = tested on: NCI-H661
Procedure, shortened: as §1

[19] = tested on: NCI-H727
Procedure, shortened: as §1

[20] = tested on: PC-14
Procedure, shortened: as §1

[21] = tested on: SK-LU-1
Procedure, shortened: as §1

[22] = tested on: SW 1573
Procedure, shortened: as §1

O=c1cc(N2CCOCC2)oc2c(-c3cccc4c3sc3ccccc34)cccc12 + CCNC(=O)c1noc(-c2cc(C(C)C)c(O)cc2O)c1-c1ccc(CN2CCOCC2)cc1 [Luminespib] (partner 0.01 µM)
relative viability ([1]; first compound 0.01 µM): 1.21
relative viability ([1]; first compound 0.03162 µM): 1.24
relative viability ([1]; first compound 0.1 µM): 1.14
relative viability ([1]; first compound 0.3162 µM): 1.07
relative viability ([1]; first compound 1 µM): 1.11
relative viability ([2]; first compound 0.01 µM): 0.244
relative viability ([2]; first compound 0.03162 µM): 0.449
relative viability ([2]; first compound 0.3162 µM): 0.19
relative viability ([2]; first compound 1 µM): 0.281
relative viability ([3]; first compound 0.01 µM): 0.885
relative viability ([3]; first compound 0.03162 µM): 0.991
relative viability ([3]; first compound 0.1 µM): 0.948
relative viability ([3]; first compound 0.3162 µM): 0.909
relative viability ([3]; first compound 1 µM): 0.945
relative viability ([4]; first compound 0.01 µM): 1.05
relative viability ([4]; first compound 0.03162 µM): 0.822
relative viability ([4]; first compound 0.1 µM): 0.842
relative viability ([4]; first compound 0.3162 µM): 1.03
relative viability ([4]; first compound 1 µM): 0.974
relative viability ([5]; first compound 0.01 µM): 0.621
relative viability ([5]; first compound 0.03162 µM): 0.796
relative viability ([5]; first compound 0.1 µM): 0.827
relative viability ([5]; first compound 0.3162 µM): 0.759
relative viability ([5]; first compound 1 µM): 0.728
relative viability ([6]; first compound 0.01 µM): 0.646
relative viability ([6]; first compound 0.03162 µM): 0.657
relative viability ([6]; first compound 0.1 µM): 0.773
relative viability ([6]; first compound 0.3162 µM): 0.752
relative viability ([6]; first compound 1 µM): 0.714
relative viability ([7]; first compound 0.01 µM): 0.519
relative viability ([7]; first compound 0.03162 µM): 0.552
relative viability ([7]; first compound 0.1 µM): 0.515
relative viability ([7]; first compound 0.3162 µM): 0.558
relative viability ([7]; first compound 1 µM): 0.544
relative viability ([8]; first compound 0.01 µM): 0.199
relative viability ([8]; first compound 0.03162 µM): 0.168
relative viability ([8]; first compound 0.1 µM): 0.216
relative viability ([8]; first compound 0.3162 µM): 0.187
relative viability ([8]; first compound 1 µM): 0.179
relative viability ([9]; first compound 0.01 µM): 0.875
relative viability ([9]; first compound 0.03162 µM): 0.831
relative viability ([9]; first compound 0.1 µM): 0.807
relative viability ([9]; first compound 0.3162 µM): 0.791
relative viability ([9]; first compound 1 µM): 0.855
relative viability ([10]; first compound 0.01 µM): 0.585
relative viability ([10]; first compound 0.03162 µM): 0.891
relative viability ([10]; first compound 0.1 µM): 0.984
relative viability ([10]; first compound 0.3162 µM): 0.697
relative viability ([10]; first compound 1 µM): 0.813
relative viability ([11]; first compound 0.01 µM): 0.931
relative viability ([11]; first compound 0.03162 µM): 0.899
relative viability ([11]; first compound 0.1 µM): 0.995
relative viability ([11]; first compound 0.3162 µM): 0.962
relative viability ([11]; first compound 1 µM): 0.97
relative viability ([12]; first compound 0.01 µM): 0.672
relative viability ([12]; first compound 0.03162 µM): 0.72
relative viability ([12]; first compound 0.1 µM): 0.793
relative viability ([12]; first compound 0.3162 µM): 0.859
relative viability ([12]; first compound 1 µM): 0.588
relative viability ([13]; first compound 0.01 µM): 0.407
relative viability ([13]; first compound 0.03162 µM): 0.427
relative viability ([13]; first compound 0.1 µM): 0.534
relative viability ([13]; first compound 0.3162 µM): 0.49
relative viability ([13]; first compound 1 µM): 0.48
relative viability ([14]; first compound 0.01 µM): 0.923
relative viability ([14]; first compound 0.03162 µM): 0.893
relative viability ([14]; first compound 0.1 µM): 0.922
relative viability ([14]; first compound 0.3162 µM): 0.93
relative viability ([14]; first compound 1 µM): 0.756
relative viability ([15]; first compound 0.01 µM): 0.571
relative viability ([15]; first compound 0.03162 µM): 0.383
relative viability ([15]; first compound 0.1 µM): 0.641
relative viability ([15]; first compound 0.3162 µM): 0.409
relative viability ([15]; first compound 1 µM): 0.323
relative viability ([16]; first compound 0.01 µM): 0.901
relative viability ([16]; first compound 0.03162 µM): 0.864
relative viability ([16]; first compound 0.1 µM): 0.889
relative viability ([16]; first compound 0.3162 µM): 0.839
relative viability ([16]; first compound 1 µM): 0.756
relative viability ([17]; first compound 0.01 µM): 0.132
relative viability ([17]; first compound 0.03162 µM): 0.115
relative viability ([17]; first compound 0.1 µM): 0.101
relative viability ([17]; first compound 0.3162 µM): 0.259
relative viability ([17]; first compound 1 µM): 0.209
relative viability ([18]; first compound 0.01 µM): 0.86
relative viability ([18]; first compound 0.03162 µM): 0.952
relative viability ([18]; first compound 0.1 µM): 0.948
relative viability ([18]; first compound 0.3162 µM): 0.943
relative viability ([18]; first compound 1 µM): 0.888
relative viability ([19]; first compound 0.01 µM): 0.324
relative viability ([19]; first compound 0.03162 µM): 0.399
relative viability ([19]; first compound 0.1 µM): 0.375
relative viability ([19]; first compound 0.3162 µM): 0.356
relative viability ([19]; first compound 1 µM): 0.416
relative viability ([20]; first compound 0.03162 µM): 0.151
relative viability ([20]; first compound 0.3162 µM): 0.197
relative viability ([20]; first compound 1 µM): 0.135
relative viability ([21]; first compound 0.01 µM): 0.206
relative viability ([21]; first compound 0.03162 µM): 0.234
relative viability ([21]; first compound 0.1 µM): 0.201
relative viability ([21]; first compound 0.3162 µM): 0.206
relative viability ([21]; first compound 1 µM): 0.215
relative viability ([22]; first compound 0.01 µM): 0.419
relative viability ([22]; first compound 0.03162 µM): 0.205
relative viability ([22]; first compound 0.1 µM): 0.211
relative viability ([22]; first compound 0.3162 µM): 0.735
relative viability ([22]; first compound 1 µM): 0.218
